In patent publication US11136301B2, “Broad spectrum antiviral compounds and uses thereof” (The Regents Of The University Of California, priority 2015, dated 2021):
Where two headings read alike, the source gives them in different places.

Tests used:
[1] = tested on: wild-type HIV-1 (HIV-1LAI) in H9 cells (non-permissive); assay: microbe, parasite or virus in culture; type: cell-based
[2] = tested on: wild-type HIV-1 (HIV-1LAI) in MT-4 cells (permissive); assay: Antiviral activity assay: wild-type HIV-1 in permissive MT4 cells, reverse transcriptase activity in culture supernatants; type: cell-based
[3] = Human immunodeficiency virus 1, H9, read-out: Antiviral activity (IC50 μM) H9, Table 2, wild-type HIV-1, non-permissive H9 cells
[4] = Human immunodeficiency virus 1, H9, read-out: Antiviral activity (IC50 μM) H9 Cells, Table 4, wild-type HIV-1, non-permissive H9 cells
[5] = Human immunodeficiency virus 1, H9, read-out: Antiviral activity (IC50 μM) H9 Cells, Table 7, wild-type HIV-1, non-permissive H9 cells
[6] = Human immunodeficiency virus 1, H9, read-out: Antiviral activity (IC50 μM) H9 cells, Table 5, wild-type HIV-1, non-permissive H9 cells
[7] = Human immunodeficiency virus 1, H9, read-out: Antiviral activity (IC50 μM) H9 cells, Table 8, wild-type HIV-1, non-permissive H9 cells
[8] = Human immunodeficiency virus 1, H9, read-out: Antiviral activity (IC50 μM) H9 cells, wild-type HIV-1 (HIV-1LAI), H9 cells (non-permissive), RT activity in culture supernatants, compounds 1 to 50 μM
[9] = Human immunodeficiency virus 1, MT4, Table 2, wild-type HIV-1, permissive MT4 cells, read-out: Antiviral activity (IC50 μM) MT4
[10] = Human immunodeficiency virus 1, MT4, wild-type HIV-1 (HIV-1LAI), MT4 cells (permissive), RT activity in culture supernatants, compounds 1 to 50 μM, read-out: Antiviral activity (IC50 μM) MT4 cells
[11] = Human immunodeficiency virus 1, H9, read-out: IC50, anti-HIV-1 activity, non-permissive H9 cells

## COC(=O)c1ccc(S(=O)(=O)c2ccccc2-c2cn(-c3cc(OC)ccc3OC)nn2)cc1 [Compound 5by, Methyl 4-((2-(1-(2,5-dimethoxyphenyl)-1H-1,2,3-triazol-4-yl)phenyl)sulfonyl)benzoate]
[1]; [3]
  IC50: 4.6 µM
[1]; [4]
  IC50: 4.6 µM
[1]; [5]
  IC50: 4.6 µM
[1]; [6]
  IC50: 4.6 µM
[1]; [7]
  IC50: 4.6 µM
[1]; [8]
  IC50: 4.6 µM
[2]; [9]
  IC50: > 50 µM
[2]; [10]
  IC50: > 50 µM

## COc1ccc(Sc2ccccc2-c2cn(-c3cc(OC)ccc3OC)nn2)cc1 [Compound 5cx, 1-(2,5-Dimethoxyphenyl)-4-(2-((4-methoxyphenyl)thio)phenyl)-1H-1,2,3-triazole]
[1]; [3]
  IC50: 15.7 µM
[1]; [4]
  IC50: 15.7 µM
[1]; [5]
  IC50: 15.7 µM
[1]; [6]
  IC50: 15.7 µM
[1]; [7]
  IC50: 15.7 µM
[1]; [8]
  IC50: 15.7 µM
[2]; [9]
  IC50: > 50 µM
[2]; [10]
  IC50: > 50 µM

## COc1ccc(S(=O)(=O)c2ccccc2-c2cn(-c3cc(OC)ccc3OC)nn2)cc1 [Compound 5cy, 1-(2,5-Dimethoxyphenyl)-4-(2-((4-methoxyphenyl)sulfonyl)phenyl)-1H-1,2,3-triazole]
[1]; [3]
  IC50: > 50 µM
[1]; [6]
  IC50: > 50 µM
[1]; [7]
  IC50: > 50 µM
[1]; [8]
  IC50: > 50 µM
[2]; [9]
  IC50: > 50 µM
[2]; [10]
  IC50: > 50 µM

## COc1ccc(OC)c(-n2cc(-c3ccccc3Sc3ccc(C(F)(F)F)cc3)nn2)c1 [Compound 5dx, 1-(2,5-Dimethoxyphenyl)-4-(2-((4-(trifluoromethyl)phenyl)thio)phenyl)-1H-1,2,3-triazole]
[1]; [3]
  IC50: 46.4 µM
[1]; [6]
  IC50: 46.4 µM
[1]; [7]
  IC50: 46.4 µM
[1]; [8]
  IC50: 46.4 µM
[2]; [9]
  IC50: > 50 µM
[2]; [10]
  IC50: > 50 µM

## COc1ccc(OC)c(-n2cc(-c3ccccc3Sc3ccc(N)cc3)nn2)c1 [Compound 5ex, 4-((2-(1-(2,5-Dimethoxyphenyl)-1H-1,2,3-triazol-4-yl)phenyl)thio)aniline]
[1]; [3]
  IC50: > 50 µM
[1]; [6]
  IC50: > 50 µM
[1]; [7]
  IC50: > 50 µM
[1]; [8]
  IC50: > 50 µM
[2]; [9]
  IC50: > 50 µM
[2]; [10]
  IC50: > 50 µM

## COc1ccc(OC)c(-n2cc(-c3ccccc3Sc3ccc(C(=O)O)cc3)nn2)c1 [Compound 5fx, 4-((2-(1-(2,5-Dimethoxyphenyl)-1H-1,2,3-triazol-4-yl)phenyl)thio)benzoic Acid]
[1]; [3]
  IC50: 4.5 µM
[1]; [4]
  IC50: 4.5 µM
[1]; [5]
  IC50: 4.5 µM
[1]; [6]
  IC50: 4.5 µM
[1]; [7]
  IC50: 4.5 µM
[1]; [8]
  IC50: 4.5 µM
[2]; [9]
  IC50: > 50 µM
[2]; [10]
  IC50: > 50 µM

## COc1ccc(OC)c(-n2cc(-c3ccccc3S(=O)(=O)c3ccc(C(=O)O)cc3)nn2)c1 [Compound 5fy, 4-((2-(1-(2,5-Dimethoxyphenyl)-1H-1,2,3-triazol-4-yl)phenyl)sulfonyl)benzoic Acid]
[1]; [3]
  IC50: > 50 µM
[1]; [6]
  IC50: > 50 µM
[1]; [7]
  IC50: > 50 µM
[1]; [8]
  IC50: > 50 µM
[2]; [9]
  IC50: > 50 µM
[2]; [10]
  IC50: > 50 µM

## COc1cccc(OC)c1-n1cc(-c2ccccc2S(=O)(=O)c2ccc([N+](=O)[O-])cc2)nn1 [Compound 6ay, 1-(2,6-Dimethoxyphenyl)-4-(2-((4-nitrophenyl)sulfonyl)phenyl)-1H-1,2,3-triazole]
[1]; [3]
  IC50: > 50 µM
[1]; [6]
  IC50: > 50 µM
[1]; [7]
  IC50: > 50 µM
[1]; [8]
  IC50: > 50 µM
[2]; [9]
  IC50: > 50 µM
[2]; [10]
  IC50: > 50 µM

## COC(=O)c1ccc(S(=O)(=O)c2ccccc2-c2cn(-c3c(OC)cccc3OC)nn2)cc1 [Compound 6by, Methyl 4-((2-(1-(2,6-dimethoxyphenyl)-1H-1,2,3-triazol-4-yl)phenyl)sulfonyl)benzoate]
[1]; [3]
  IC50: > 50 µM
[1]; [6]
  IC50: > 50 µM
[1]; [7]
  IC50: > 50 µM
[1]; [8]
  IC50: > 50 µM
[2]; [9]
  IC50: > 50 µM
[2]; [10]
  IC50: > 50 µM

## COc1ccc(S(=O)(=O)c2ccccc2-c2cn(-c3c(OC)cccc3OC)nn2)cc1 [Compound 6cy, 1-(2,6-Dimethoxyphenyl)-4-(2-((4-methoxyphenyl)sulfonyl)phenyl)-1H-1,2,3-triazole]
[1]; [3]
  IC50: > 50 µM
[1]; [6]
  IC50: > 50 µM
[1]; [7]
  IC50: > 50 µM
[1]; [8]
  IC50: > 50 µM
[2]; [9]
  IC50: > 50 µM
[2]; [10]
  IC50: > 50 µM

## COc1cccc(OC)c1-n1cc(-c2ccccc2S(=O)(=O)c2ccc(N)cc2)nn1 [Compound 6ey, 4-((2-(1-(2,6-Dimethoxyphenyl)-1H-1,2,3-triazol-4-yl)phenyl)sulfonyl)aniline]
[1]; [3]
  IC50: 1.5 µM
[1]; [4]
  IC50: 1.5 µM
[1]; [5]
  IC50: 1.5 µM
[1]; [6]
  IC50: 1.5 µM
[1]; [7]
  IC50: 1.5 µM
[1]; [8]
  IC50: 1.5 µM
[1]; [11]
  IC50: 1 to 3 µM
[2]; [9]
  IC50: > 50 µM
[2]; [10]
  IC50: > 50 µM

## COc1cccc(OC)c1-n1cc(-c2ccccc2Sc2ccc(C(=O)O)cc2)nn1 [Compound 6fx, 4-((2-(1-(2,6-Dimethoxyphenyl)-1H-1,2,3-triazol-4-yl)phenyl)thio)benzoic Acid]
[1]; [3]
  IC50: 1.9 µM
[1]; [4]
  IC50: 1.9 µM
[1]; [5]
  IC50: 1.9 µM
[1]; [6]
  IC50: 1.9 µM
[1]; [7]
  IC50: 1.9 µM
[1]; [8]
  IC50: 1.9 µM
[1]; [11]
  IC50: 1 to 3 µM
[2]; [9]
  IC50: > 50 µM
[2]; [10]
  IC50: > 50 µM

## COc1cccc(OC)c1-n1cc(-c2ccccc2S(=O)(=O)c2ccc(C(=O)O)cc2)nn1 [Compound 6fy, 4-((2-(1-(2,6-Dimethoxyphenyl)-1H-1,2,3-triazol-4-yl)phenyl)sulfonyl)benzoic Acid]
[1]; [3]
  IC50: 1.2 µM
[1]; [4]
  IC50: 1.2 µM
[1]; [5]
  IC50: 1.2 µM
[1]; [6]
  IC50: 1.2 µM
[1]; [7]
  IC50: 1.2 µM
[1]; [8]
  IC50: 1.2 µM
[1]; [11]
  IC50: 1 to 3 µM
[2]; [9]
  IC50: > 50 µM
[2]; [10]
  IC50: > 50 µM

## COc1cccc(F)c1-n1cc(-c2ccccc2Sc2ccc([N+](=O)[O-])cc2)nn1 [Compound 7ax, 1-(2-Fluoro-6-methoxyphenyl)-4-(2-((4-nitrophenyl)thio)phenyl)-1H-1,2,3-triazole]
[1]; [3]
  IC50: 3.9 µM
[1]; [4]
  IC50: 3.9 µM
[1]; [5]
  IC50: 3.9 µM
[1]; [6]
  IC50: 3.9 µM
[1]; [7]
  IC50: 3.9 µM
[1]; [8]
  IC50: 3.9 µM
[2]; [9]
  IC50: > 50 µM
[2]; [10]
  IC50: > 50 µM

## COc1cccc(F)c1-n1cc(-c2ccccc2S(=O)(=O)c2ccc([N+](=O)[O-])cc2)nn1 [Compound 7ay, 1-(2-Fluoro-6-methoxyphenyl)-4-(2-((4-nitrophenyl)sulfonyl)phenyl)-1H-1,2,3-triazole]
[1]; [3]
  IC50: > 50 µM
[1]; [6]
  IC50: > 50 µM
[1]; [7]
  IC50: > 50 µM
[1]; [8]
  IC50: > 50 µM
[2]; [9]
  IC50: > 50 µM
[2]; [10]
  IC50: > 50 µM

## COC(=O)c1ccc(Sc2ccccc2-c2cn(-c3c(F)cccc3OC)nn2)cc1 [Compound 7bx, Methyl 4-((2-(1-(2-fluoro-6-methoxyphenyl)-1H-1,2,3-triazol-4-yl)phenyl)thio)benzoate]
[1]; [3]
  IC50: 7.8 µM
[1]; [4]
  IC50: 7.8 µM
[1]; [5]
  IC50: 7.8 µM
[1]; [6]
  IC50: 7.8 µM
[1]; [7]
  IC50: 7.8 µM
[1]; [8]
  IC50: 7.8 µM
[2]; [9]
  IC50: > 50 µM
[2]; [10]
  IC50: > 50 µM

## COc1ccc(S(=O)(=O)c2ccccc2-c2cn(-c3c(F)cccc3OC)nn2)cc1 [Compound 7cy, 1-(2-Fluoro-6-methoxyphenyl)-4-(2-((4-methoxyphenyl)sulfonyl)phenyl)-1H-1,2,3-triazole]
[1]; [3]
  IC50: > 50 µM
[1]; [6]
  IC50: > 50 µM
[1]; [7]
  IC50: > 50 µM
[1]; [8]
  IC50: > 50 µM
[2]; [9]
  IC50: > 50 µM
[2]; [10]
  IC50: > 50 µM

## COc1cccc(F)c1-n1cc(-c2ccccc2S(=O)(=O)c2ccc(C(F)(F)F)cc2)nn1 [Compound 7dy, 1-(2-Fluoro-6-methoxyphenyl)-4-(2-((4-(trifluoromethyl)phenyl)sulfonyl)phenyl)-1H-1,2,3-triazole]
[1]; [3]
  IC50: > 50 µM
[1]; [6]
  IC50: > 50 µM
[1]; [7]
  IC50: > 50 µM
[1]; [8]
  IC50: > 50 µM
[2]; [9]
  IC50: > 50 µM
[2]; [10]
  IC50: > 50 µM

## COc1cccc(F)c1-n1cc(-c2ccccc2Sc2ccc(N)cc2)nn1 [Compound 7ex, 4-((2-(1-(2-Fluoro-6-methoxyphenyl)-1H-1,2,3-triazol-4-yl)phenyl)thio)aniline]
[1]; [3]
  IC50: > 50 µM
[1]; [6]
  IC50: > 50 µM
[1]; [7]
  IC50: > 50 µM
[1]; [8]
  IC50: > 50 µM
[2]; [9]
  IC50: > 50 µM
[2]; [10]
  IC50: > 50 µM

## COc1cccc(F)c1-n1cc(-c2ccccc2S(=O)(=O)c2ccc(N)cc2)nn1 [Compound 7ey, 4-((2-(1-(2-Fluoro-6-methoxyphenyl)-1H-1,2,3-triazol-4-yl)phenyl)sulfonyl)aniline]
[1]; [3]
  IC50: 15 µM
[1]; [4]
  IC50: 15 µM
[1]; [5]
  IC50: 15 µM
[1]; [6]
  IC50: 15 µM
[1]; [7]
  IC50: 15 µM
[1]; [8]
  IC50: 15 µM
[2]; [9]
  IC50: > 50 µM
[2]; [10]
  IC50: > 50 µM

## COc1cccc(F)c1-n1cc(-c2ccccc2Sc2ccc(C(=O)O)cc2)nn1 [Compound 7fx, 4-((2-(1-(2-Fluoro-6-methoxyphenyl)-1H-1,2,3-triazol-4-yl)phenyl)thio)benzoic Acid]
[1]; [3]
  IC50: 4.9 µM
[1]; [4]
  IC50: 4.9 µM
[1]; [5]
  IC50: 4.9 µM
[1]; [6]
  IC50: 4.9 µM
[1]; [7]
  IC50: 4.9 µM
[1]; [8]
  IC50: 4.9 µM
[2]; [9]
  IC50: > 50 µM
[2]; [10]
  IC50: > 50 µM

## COc1cccc(F)c1-n1cc(-c2ccccc2S(=O)(=O)c2ccc(C(=O)O)cc2)nn1 [Compound 7fy, 4-((2-(1-(2-Fluoro-6-methoxyphenyl)-1H-1,2,3-triazol-4-yl)phenyl)sulfonyl)benzoic Acid]
[1]; [3]
  IC50: > 50 µM
[1]; [6]
  IC50: > 50 µM
[1]; [7]
  IC50: > 50 µM
[1]; [8]
  IC50: > 50 µM
[2]; [9]
  IC50: > 50 µM
[2]; [10]
  IC50: > 50 µM
